Data from ChEMBL document CHEMBL1133015 (J Med Chem, 2000).

Columns and labels:
Substance-P receptor [1] = target: T1, Substance-P receptor (Homo sapiens, UniProt P25103); test: Tested for binding affinity against Tachykinin receptor 1 expressed in CHO cells, using [125]SP as radioligand; NA - did not bind; type: cell-based
Substance-K receptor [2] = target: T2, Substance-K receptor (Homo sapiens, UniProt P21452); test: Tested for binding affinity against Tachykinin receptor 2 expressed in CHO cells, using [125]SP as radioligand; NA - did not bind; type: cell-based
T2 sequence (P21452 whole entry): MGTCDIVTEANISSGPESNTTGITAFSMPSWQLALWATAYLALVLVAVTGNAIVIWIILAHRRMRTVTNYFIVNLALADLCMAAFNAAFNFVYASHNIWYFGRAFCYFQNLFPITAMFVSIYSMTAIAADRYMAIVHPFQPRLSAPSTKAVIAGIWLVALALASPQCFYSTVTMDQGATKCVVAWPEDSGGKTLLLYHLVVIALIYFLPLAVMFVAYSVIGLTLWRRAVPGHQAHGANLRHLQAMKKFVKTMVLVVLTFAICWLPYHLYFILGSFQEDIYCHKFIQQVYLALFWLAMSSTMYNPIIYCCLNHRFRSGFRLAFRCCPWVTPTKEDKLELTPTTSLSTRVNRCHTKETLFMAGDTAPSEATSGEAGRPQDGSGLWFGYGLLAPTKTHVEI

[3] = tested on: Substance-P receptor (Homo sapiens), P25103 [Q165A]; test: Inhibition against Q165A mutant NK1 receptor expressed in CHO cells, using [125]SP as radioligand at 1 uM; type: cell-based
Substance-P receptor [4] = target: T1, Substance-P receptor; test: Tested for binding affinity against human wild type NK1 receptor expressed in CHO cells, using [125]SP as radioligand.; type: cell-based
Substance-K receptor [5] = target: T2, Substance-K receptor; test: Tested for binding affinity against Tachykinin receptor 2 expressed in CHO cells, using [125]SP as radioligand.; type: cell-based
Substance-P receptor [6] = target: Substance-P receptor (Homo sapiens, UniProt P25103, Q165A); test: Tested for binding affinity against Q165A mutant NK1 receptor expressed in CHO cells, using [125]SP as radioligand; type: cell-based
Substance-P receptor [7] = target: Substance-P receptor (Homo sapiens, UniProt P25103, H265A); test: Tested for binding affinity against H265A mutant NK1 receptor using [125]SP radioligand in COS cells.; type: cell-based
Substance-P receptor [8] = target: Substance-P receptor (Homo sapiens, UniProt P25103, H197A); test: Tested for binding affinity against H197A mutant NK1 receptor using [125]SP radioligand in COS cells.; type: cell-based
Substance-P receptor [9] = target: T1, Substance-P receptor; test: Tested for binding affinity against Tachykinin receptor 1 expressed in CHO cells, using [125]SP as radioligand.; type: cell-based
Somatostatin receptor = test: Tested for binding affinity against somatostatin receptor on AtT-20 cells; type: cell-based; conditions: att20
[10] = target: Somatostatin receptor type 4 (Homo sapiens, UniProt P31391); test: Tested for binding affinity against human somatostatin receptor subtype 4 (hSSTR4)
Substance-P receptor [11] = target: T1, Substance-P receptor; test: Tested for binding affinity against Tachykinin receptor 1
Substance-P receptor [12] = target: T1, Substance-P receptor; test: Tested for binding affinity against Tachykinin receptor 1 expressed in CHO cells, using [125]SP as radioligand at 1 uM; type: cell-based

Sequence of Substance-P receptor (Homo sapiens, UniProt P25103, H265A) (P25103 whole entry H265A): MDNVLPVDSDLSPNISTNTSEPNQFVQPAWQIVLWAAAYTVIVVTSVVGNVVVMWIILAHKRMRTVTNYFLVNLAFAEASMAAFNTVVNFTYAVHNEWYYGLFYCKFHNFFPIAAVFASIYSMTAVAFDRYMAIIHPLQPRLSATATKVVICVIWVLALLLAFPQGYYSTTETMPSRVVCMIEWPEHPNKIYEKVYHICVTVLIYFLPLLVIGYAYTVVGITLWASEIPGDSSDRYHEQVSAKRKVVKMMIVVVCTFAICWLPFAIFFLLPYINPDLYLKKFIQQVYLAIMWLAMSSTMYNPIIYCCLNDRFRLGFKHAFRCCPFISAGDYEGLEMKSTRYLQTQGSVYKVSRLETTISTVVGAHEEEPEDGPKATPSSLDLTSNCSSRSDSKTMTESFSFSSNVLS
T1 sequence (P25103 whole entry): as the sequence (P25103 whole entry H265A) above, with A265H counted along it
Sequence of Substance-P receptor (Homo sapiens, UniProt P25103, H197A) (P25103 whole entry H197A): as the sequence (P25103 whole entry H265A) above, with H197A, A265H counted along it
Sequence of Substance-P receptor (Homo sapiens), P25103 [Q165A] (P25103 whole entry Q165A): as the sequence (P25103 whole entry H265A) above, with Q165A, A265H counted along it
Sequence of Substance-P receptor (Homo sapiens, UniProt P25103, Q165A) (P25103 whole entry Q165A): as the sequence (P25103 whole entry H265A) above, with Q165A, A265H counted along it
Sequence of Somatostatin receptor type 4 (P31391 whole entry): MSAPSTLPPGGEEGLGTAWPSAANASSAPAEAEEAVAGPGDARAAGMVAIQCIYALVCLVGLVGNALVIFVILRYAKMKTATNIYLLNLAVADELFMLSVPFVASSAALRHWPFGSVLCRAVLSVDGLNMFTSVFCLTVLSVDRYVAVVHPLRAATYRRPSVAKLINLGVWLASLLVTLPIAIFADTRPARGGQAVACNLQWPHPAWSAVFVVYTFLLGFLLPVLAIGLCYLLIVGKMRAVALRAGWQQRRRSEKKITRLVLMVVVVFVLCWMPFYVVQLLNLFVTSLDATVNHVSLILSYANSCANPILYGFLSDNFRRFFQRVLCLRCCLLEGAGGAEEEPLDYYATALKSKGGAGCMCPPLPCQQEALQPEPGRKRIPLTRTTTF

SMILES: C[C@H](NC(=O)CN)C(=O)N[C@H]1CSSC[C@H](C(=O)O)NC(=O)[C@H](CO)NC(=O)[C@H]([C@@H](C)O)NC(=O)[C@H](Cc2ccccc2)NC(=O)[C@H]([C@@H](C)O)NC(=O)[C@H](CCCCN)NC(=O)[C@@H](Cc2c[nH]c3ccccc23)NC(=O)[C@H](Cc2ccccc2)NC(=O)[C@H](Cc2ccccc2)NC(=O)[C@H](CC(N)=O)NC(=O)[C@H](CCCCN)NC1=O
- IC50 (Substance-P receptor [1]): Not Active
- IC50 (Substance-K receptor [2]): Not Active

SMILES: C[C@@H](O)[C@@H]1NC(=O)[C@H](Cc2ccc(F)cc2)NC(=O)[C@@H](Cc2c[nH]c3ccccc23)NC(=O)[C@H](Cc2ccccc2)NC(=O)[C@H](Cc2ccccc2)NC(=O)[C@H](CC(N)=O)NC(=O)[C@H](CCCCN)NC(=O)[C@@H](N)CSSC[C@H](C(=O)O)NC(=O)[C@H](CO)NC(=O)[C@H]([C@@H](C)O)NC(=O)[C@H](Cc2ccccc2)NC1=O
- inhibition [3]: 37%

SMILES: C[C@H](NC(=O)CN)C(=O)N[C@H]1CSSC[C@@H](C(=O)O)NC(=O)[C@H](CO)NC(=O)[C@H]([C@@H](C)O)NC(=O)[C@H](Cc2ccccc2)NC(=O)[C@H]([C@@H](C)O)NC(=O)[C@H](Cc2ccc(F)cc2)NC(=O)[C@H](Cc2c[nH]c3ccccc23)NC(=O)[C@H](Cc2ccccc2)NC(=O)[C@H](Cc2ccccc2)NC(=O)[C@H](CC(N)=O)NC(=O)[C@H](CCCCN)NC1=O
- IC50 (Substance-P receptor [4]): 1400 nM
- IC50 (Substance-K receptor [5]): 730 nM
- IC50 (Substance-P receptor [6]): 3600 nM
- IC50 (Substance-P receptor [7]): 8200 nM
- IC50 (Substance-P receptor [8]): 2700 nM

SMILES: C[C@H](NC(=O)CN)C(=O)N[C@H]1CSSC[C@H](C(=O)O)NC(=O)[C@H](CO)NC(=O)[C@H]([C@@H](C)O)NC(=O)[C@H](Cc2ccccc2)NC(=O)[C@H]([C@@H](C)O)NC(=O)[C@H](Cc2ccc(F)cc2)NC(=O)[C@@H](Cc2c[nH]c3ccccc23)NC(=O)[C@H](Cc2ccccc2)NC(=O)[C@H](Cc2ccccc2)NC(=O)[C@H](CC(N)=O)NC(=O)[C@H](CCCCN)NC1=O
- inhibition [3]: 30%

SMILES: C[C@H](NC(=O)CN)C(=O)N[C@H]1CSSC[C@@H](C(=O)O)NC(=O)[C@H](CO)NC(=O)[C@H]([C@@H](C)O)NC(=O)[C@H](Cc2ccccc2)NC(=O)[C@H]([C@@H](C)O)NC(=O)[C@H](Cc2ccc(F)cc2)NC(=O)[C@@H](Cc2c[nH]c3ccccc23)NC(=O)[C@H](Cc2ccccc2)NC(=O)[C@H](Cc2ccccc2)NC(=O)[C@H](CC(N)=O)NC(=O)[C@H](CCCCN)NC1=O
- IC50 (Substance-P receptor [9]): 220 nM
- IC50 (Substance-P receptor [4]): 240 nM
- IC50 (Substance-K receptor [5]): 27 nM
- IC50 (Substance-P receptor [7]): 6100 nM
- IC50 (Substance-P receptor [8]): 950 nM

SMILES: C[C@H](NC(=O)CN)C(=O)N[C@H]1CSSC[C@@H](C(=O)O)NC(=O)[C@H](CO)NC(=O)[C@H]([C@@H](C)O)NC(=O)[C@H](Cc2ccccc2)NC(=O)[C@H]([C@@H](C)O)NC(=O)[C@H](CCCCN)NC(=O)[C@H](Cc2c[nH]c3ccccc23)NC(=O)[C@H](Cc2ccccc2)NC(=O)[C@H](Cc2ccccc2)NC(=O)[C@H](CC(N)=O)NC(=O)[C@H](CCCCN)NC1=O
- IC50 (Substance-K receptor [5]): 850 nM

SMILES: C[C@@H](O)[C@@H]1NC(=O)[C@H](CCCCN)C2C(=O)[C@@H](Cc3c2[nH]c2ccccc32)NC(=O)[C@H](Cc2ccccc2)NC(=O)[C@@H]2CCCC2C(=O)[C@H](Cc2ccccc2)NC1=O (stereo not given in full)
- IC50 (Somatostatin receptor): 15000 nM
- IC50 [10]: 100 nM

SMILES: C[C@@H](O)[C@@H]1NC(=O)[C@H](Cc2ccccc2)NC(=O)[C@H]([C@@H](C)O)NC(=O)[C@H](Cc2ccc(F)cc2)NC(=O)[C@@H](Cc2c[nH]c3ccccc23)NC(=O)[C@H](Cc2ccccc2)NC(=O)[C@H](Cc2ccccc2)NC(=O)[C@H](CC(N)=O)NC(=O)[C@H](CCCCN)NC(=O)[C@@H](N)CSSC[C@@H](C(=O)O)NC(=O)[C@H](CO)NC1=O
- IC50 (Substance-P receptor [9]): 250 nM
- IC50 (Substance-P receptor [4]): 260 nM
- IC50 (Substance-K receptor [5]): 46 nM
- IC50 (Substance-P receptor [7]): 9600 nM
- IC50 (Substance-P receptor [8]): 900 nM

SMILES: C[C@@H](O)[C@@H]1NC(=O)[C@H](Cc2ccc(F)cc2)C2C(=O)[C@@H](Cc3c2[nH]c2ccccc32)NC(=O)[C@H](Cc2ccccc2)NC(=O)[C@@H]2CCCC2C(=O)[C@H](Cc2ccccc2)NC1=O (stereo not given in full)
- IC50 (Substance-P receptor [11]): 28 nM

SMILES: NCCCCCOC[C@H]1O[C@@H](OCCc2c[nH]c3ccccc23)[C@H](OCc2ccccc2)[C@@H](OCc2ccccc2)[C@@H]1OCc1ccccc1
- IC50 (Substance-P receptor [11]): 120 nM

SMILES: C[C@H](NC(=O)CN)C(=O)N[C@H]1CSSC[C@H](C(=O)O)NC(=O)[C@H](CO)NC(=O)[C@H]([C@@H](C)O)NC(=O)[C@H](Cc2ccccc2)NC(=O)[C@H]([C@@H](C)O)NC(=O)[C@H](CCCCN)NC(=O)[C@H](Cc2c[nH]c3ccccc23)NC(=O)[C@H](Cc2ccccc2)NC(=O)[C@H](Cc2ccccc2)NC(=O)[C@H](CC(N)=O)NC(=O)[C@H](CCCCN)NC1=O
- inhibition (Substance-P receptor [12]): 7%
